Experimental data reported in patent publication US20220380341A1, “INHIBITORS OF HIV-1 NEF FOR THE TREATMENT OF HIV DISEASE” (priority 2018, published 2022).
Where two headings read alike, the source gives them in different places.

Key:
TZM-bl cell line = assay type: cell-based; settings: 1 μM
Summary of the method: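 Nef-dependent infectivity in TZM-bl cells: HIV-1NL4-3 infection with 1 μM compound, luciferase read at 48 h, normalized against DMSO wild-type and Nef-defective controls. Compound cytotoxicity in uninfected cells measured by Cell Titer Blue.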

HIV-1NL4-3 = test: HIV-1 infectivity assay in TZM-bl reporter cell line (LTR-luciferase, 48 h); assay type: cell-based; settings: for inhibition at 1 µM: Human immunodeficiency virus 1, TZM-bl
Summary of the method: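 Read-out is luciferase from an integrated HIV-1 LTR reporter in TZM-bl cells, 48 h after HIV-1NL4-3 infection in the presence of 1 μM compound. Scale set by DMSO-treated wild-type-infected cells (0%) and Nef-defective virus (100% Nef-dependent effect). Cell Titer Blue measures cytotoxicity without virus.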

HIV-1 NefNL4-3 = HIV-1 NefNL4-3 (Human immunodeficiency virus type 1 group M subtype B, UniProt P03406, A33V/T15A/T51N/V11I); test: Surface plasmon resonance binding to recombinant full-length Nef (NL4-3); settings: for RU30/RUNef (extent of binding): response units at 30 μM relative to Nef immobilized on the SPR chip
[1] = 1.0 μM, TZM-bl reporter cell line, Table 4, read-out: % Infectivity Inhibition
[2] = 48 h, Table 1, TZM-bl cells, 1 μM, 48 h, 100% = Nef-defective HIV-1, read-out: HIV-1 Infectivity % Inhibition Norm. to Δ-Nef @ 1 μM
[3] = KD, M, Table 4, SPR fit 1:1 Langmuir, KD = koff/kon
[4] = Table 4, 1:1 Langmuir fit, T = 1/koff
[5] = Nef NL4-3 Binding, SPR 2-state fitting KD, Table 1, 2-step induced-fit model
[6] = KD, M, Table 4, SPR fit 2-step induced fit, KD = koff/kon × koff2/(koff2 + kon2)
[7] = Table 4, 2-step induced fit, T = 1/koff2
[8] = read-out: Nef NL4-3 Binding, SPR 1:1 or 2-site fitting KD2, Table 1, 2-site fit, second component

Row | Structure (SMILES) | % Cell Viability (TZM-bl cell line; human) [%] | Percent Viability @ 1 μM (TZM-bl cells) (TZM-bl cell line; human) [%] | inhibition at 1 µM (HIV-1NL4-3; [1]) [%] | inhibition at 1 µM (HIV-1NL4-3; [2]) [%] | Kd (HIV-1 NefNL4-3) [µM] | Kd (HIV-1 NefNL4-3; [3]) [µM] | T, minutes (residence time) (HIV-1 NefNL4-3; [4]) | RU30/RUNef (extent of binding) (HIV-1 NefNL4-3) | Kd (HIV-1 NefNL4-3; Nef NL4-3 Binding, SPR 1:1 or 2-site fitting KD2, Table 1, 2-site fit, second component) [µM] | Kd (HIV-1 NefNL4-3; [5]) [µM] | Percent Viability @ 1 μM (TZM-bl cells) (TZM-bl cell line; Table 1, uninfected TZM-bl cells, Cell Titer Blue) [%] | HIV-1 Infectivity % Inhibition Norm. to Δ-Nef @ 1 μM (HIV-1NL4-3; Table 1, TZM-bl cells, 1 μM, 48 h, 100% = Nef-defective HIV-1) [%] | Kd (HIV-1 NefNL4-3; Table 1, 1:1 Langmuir fit where the KD2 cell says '1 to 1 fitting', else 2-site fit, read-out: Nef NL4-3 Binding, SPR 1:1 or 2-site fitting KD1) [µM] | Nef NL4-3 Binding, SPR 1:1 or 2-site fitting KD1 (HIV-1 NefNL4-3; Table 1, 1:1 Langmuir fit where the KD2 cell says '1 to 1 fitting', else 2-site fit) | Kd (HIV-1 NefNL4-3; [6]) [µM] | T, minutes (residence time) (HIV-1 NefNL4-3; [7]) | Kd (HIV-1 NefNL4-3; [8]) [µM]
1 | CC(C)(C)OC(=O)N1CCN(Cc2nn(-c3nc4ccccc4[nH]3)c(O)c2CCc2ccc(F)cc2)CC1 [Compound I-211, tert-butyl 4-{[1-(1H-1,3-benzodiazol-2-yl)-4-[2-(4-fluorophenyl)ethyl]-5-hydroxy-1H-pyrazol-3-yl]methyl}piperazine-1-carboxylate] | 100 | 103.5 | 0 | -19.4 | 7.22 | 7.22 | 1.65E + 00 minutes | 2.89E- 03 |  |  |  |  |  |  |  |  | 
2 | CC(C)(C)OC(=O)NCc1nn(-c2nc3ccccc3[nH]2)c(O)c1CCc1ccc(F)cc1 [Compound I-212, tert-butyl N-{[1-(1H-1,3-benzodiazol-2-yl)-4-[2-(4-fluorophenyl)ethyl]-5-hydroxy-1H-pyrazol-3-yl]methyl}carbamate] |  | 92.9 |  | 50.9 | 0.538 |  |  |  | 1.48 | 2.32 |  |  |  |  |  |  | 
3 | CC(C)(C)OC(=O)NC1(c2nn(-c3nc4ccccc4[nH]3)c(O)c2CCc2ccc(F)cc2)CCOCC1 [Compound I-213, tert-butyl N-{4-[1-(1H-l,3-benzodiazol-2-yl)-4-[2-(4-fluorophenyl)ethyl]-5-hydroxy-1H-pyrazol-3-yl]oxan-4-yl}carbamate] |  |  |  |  |  |  |  |  |  |  | 97.6 | −4.6 | 1.6 |  |  |  | 
4 | CC(C)(C)OC(=O)N1CCCC(Cc2nn(-c3nc4ccccc4[nH]3)c(O)c2CCc2ccc(F)cc2)C1 (stereo not drawn) [Compound I-214, tert-butyl 3-{[1-(1H-1,3-benzodiazol-2-yl)-4-[2-(4-fluorophenyl)ethyl]-5-hydroxy-1H-pyrazol-3-yl]methyl}piperidine-1-carboxylate] |  | 99.9 |  | -5.5 | 0.0208 |  |  |  |  |  |  |  |  |  |  |  | 
5 | CC(C)(C)OC(=O)N1CCC(c2nn(-c3nc4cccc(Cl)c4[nH]3)c(O)c2CCc2ccc(F)cc2)CC1 [Compound I-217, tert-butyl 4-[1-(7-chloro-1H-1,3-benzodiazol-2-yl)-4-[2-(4-fluorophenyl)ethyl]-5-hydroxy-1H-pyrazol-3-yl]piperidine-1-carboxylate] |  | 104.9 |  | 0.1 |  |  |  |  |  |  |  |  |  | No Interaction |  |  | 
6 | CC(C)(C)OC(=O)N1CCC(CCc2c(C3CC3)nn(-c3nc4cc(Cl)ccc4[nH]3)c2O)CC1 [Compound I-218, tert-butyl 4-{2-[1-(5-chloro-1H-1,3-benzodiazol-2-yl)-3-cyclopropyl-5-hydroxy-1H-pyrazol-4-yl]ethyl}piperidine-1-carboxylate] | 97.9 | 97.9 | 0 | -7 | 1.12 |  |  | 1.32E- 02 |  | 0.692 |  |  |  |  | 0.692 | 1.02E + 01 minutes | 
7 | CC(C)(C)OC(=O)N1CCC(c2nn(-c3nc4cc(F)c(F)cc4[nH]3)c(O)c2CCc2ccc(F)cc2)CC1 [Compound I-219, tert-butyl 4-[1-(5,6-difluoro-1H-1,3-benzodiazol-2-yl)-4-[2-(4-fluorophenyl)ethyl]-5-hydroxy-1H-pyrazol-3-yl]piperidine-1-carboxylate] | 79.2 | 79.2 | 100 | 109 |  |  |  | 4.76E- 03 |  | 0.0493 |  |  |  |  | 0.0493 | 4.93E + 02 minutes | 3.29
8 | CC(C)(C)OC(=O)N1CCC(c2nn(-c3nc4cccnc4[nH]3)c(O)c2CCc2ccc(F)cc2)CC1 [Compound I-220, tert-butyl 4-{4-[2-(4-fluorophenyl)ethyl]-5-hydroxy-1-{3H-imidazo[4,5-b]pyridin-2-yl}-1H-pyrazol-3-yl}piperidine-1-carboxylate] | 100 | 103.6 | 9.8 | 9.8 | 0.283 |  |  | 7.24E- 03 |  | 3.95 |  |  |  |  | 3.95 | 6.92E + 00 minutes | 3.82
9 | CC(C)(C)OC(=O)N1CCC(c2nn(-c3nc4ccncc4[nH]3)c(O)c2CCc2ccc(F)cc2)CC1 [Compound I-221, tert-butyl 4-{4-[2-(4-fluorophenyl)ethyl]-5-hydroxy-1-{3H-imidazo[4,5-c]pyridin-2-yl}-1H-pyrazol-3-yl}piperidine-1-carboxylate] |  | 103.1 |  | 10.6 | 12.8 |  |  |  |  |  |  |  |  |  |  |  | 
10 | Oc1c(CCc2ccc(F)cc2)c(-c2ccc(C(F)(F)F)cn2)nn1-c1nc2cccnc2[nH]1 [Compound I-302, 4-[2-(4-fluorophenyl)ethyl]-1-{3H-imidazo[4,5-b]pyridin-2-yl}-3-[5-(trifluoromethyl)pyridin-2-yl]-1H-pyrazol-5-ol] | 98.9 | 98.9 | 0 | -2.4 | 3.61 | 3.61 | 8.82E + 00 minutes | 1.66E- 03 |  |  |  |  |  |  |  |  | 
11 | Cc1ccn(CCc2c(-c3ccc(C(F)(F)F)cc3)nn(-c3nc4cccnc4[nH]3)c2O)n1 [Compound I-303, 1-{3H-imidazo[4,5-b]pyridin-2-yl}-4-[2-(3-methyl-1H-pyrazol-1-yl)ethyl]-3-[4-(trifluoromethyl)phenyl]-1H-pyrazol-5-ol] | 98.3 | 98.3 | 40.1 | 40.6 | 0.396 | 0.396 | 9.47E + 01 minutes | 3.06E- 03 |  |  |  |  |  |  |  |  | 
12 | Oc1c(CCC2CCOCC2)c(-c2cccc(F)c2)nn1-c1nc2cccnc2[nH]1 [Compound I-304, 3-(3-fluorophenyl)-1-{3H-imidazo[4,5-b]pyridin-2-yl}-4-[2-(oxan-4-yl)ethyl]-1H-pyrazol-5-ol] | 98.7 | 98.7 | 0 | -2 | 0.138 |  |  | 5.25E- 03 |  | 3.15 |  |  |  |  | 3.15 | 1.25E + 01 minutes | 40.3
13 | CS(=O)(=O)c1cccc(-c2nn(-c3nc4cccnc4[nH]3)c(O)c2CCC2CCOCC2)c1 [Compound I-305, 1-{3H-imidazo[4,5-b]pyridin-2-yl}-3-(3-methanesulfonylphenyl)-4-[2-(oxan-4-yl)ethyl]-1H-pyrazol-5-ol] | 96.8 | 96.8 | 59.3 | 59.3 | 0.744 | 0.744 | 1.13E + 01 minutes | 2.13E- 03 |  |  |  |  |  |  |  |  | 
